Source: US9840500B2, “Compounds as dual inhibitors of histone methyltransferases and DNA methyltransferases” (FUNDACIÓN PARA LA INVESTIGACIÓN MÉDICA APLICADA, priority 2014, dated 2017)

Tests used:
CEMO-1 = assay: Cell proliferation assay, CEMO-1 (ALL); type: cell-based, human; details: Homo sapiens; 48 hours of treatment; Table 3
Protocol: (§1) Cell proliferation was analyzed after 48 hours of in vitro treatment using the CellTiter 96 Aqueous One Solution Cell Proliferation Assay (Promega, Madison, Wis.). This is a colorimetric method for determining the number of viable cells in proliferation.
(§2) For the assay, suspension cells were cultured by triplicate at a density of 1×10^6 cells/ml in 96-well plates (100.000 cells/well, 100 μl/well), except for OCILY-3 and OCILY-10 cell lines which were cultured at a density of 0.5×10^6 cells/ml (50.000 cells/well, 100 μl/well) and for HepG2, Hep3B and PLC/PRF/5 cell ines which were cultured at a density of 3000 cells/well, 100 μl/well). Adherent cells were obtained from 80-90% confluent flasks and 100 μl of cells were seeded at a density of 5000 cells/well in 96-well plates by triplicate. Before addition of the compounds, adherent cells were allowed to attach to the bottom of the wells for 12 hours. In all cases, only the 60 inner wells were used to avoid any border effects.
(§3) After 48 hours of treatment, plates with suspension cells were centrifuged at 800 g for 10 minutes and medium was removed. The plates with adherent cells were flicked to remove medium. Then, cells were incubated with 100 ul/well of medium and 20 ul/well of CellTiter 96 Aqueous One Solution reagent. After 1-3 hours of incubation at 37° C., absorbance was measured at 490 nm in a 96-well plate reader. The background absorbance was measured in wells with only cell line medium and solution reagent. Data was calculated as a percentage of total absorbance of treated cell/absorbance of non treated cells.

PLC/PRF/5 = assay: Cell proliferation assay, PLC/PRF/5 (HCC); type: cell-based; details: Homo sapiens, 48 hours of treatment, Table 3
Protocol: as §1, §2, §3

OCI-Ly3 = assay: Cell proliferation assay, OCI-Ly3 (ABC-DLBCL); type: cell-based; details: Homo sapiens, 48 hours of treatment, Table 3
Protocol: as §1, §2, §3

OCI-Ly10 = assay: Cell proliferation assay, OCI-Ly10 (ABC-DLBCL); type: cell-based; details: Homo sapiens, 48 hours of treatment, Table 3
Protocol: as §1, §2, §3

HepG2 = assay: Cell proliferation assay, HepG2 (HCC); type: cell-based; details: Homo sapiens, 48 hours of treatment, Table 3
Protocol: as §1, §2, §3

Hep3B = assay: Cell proliferation assay, Hep3B (HCC); type: cell-based; details: Homo sapiens, 48 hours of treatment, Table 3
Protocol: as §1, §2, §3

LAL-CUN-2 = assay: Cell proliferation assay, LAL-CUN-2 (ALL); type: cell-based; details: 48 hours of treatment; Table 3
Protocol: as §1, §2, §3

DNMT1 = DNMT1 (Homo sapiens, UniProt P26358); assay: DNMT1 enzyme activity assay (TR-FRET, EPIgeneous methyltransferase assay); type: biochemical
Protocol: The biochemical assay to measure DNMT1 enzyme activity relies on time-resolved fluorescence energy transfer (TR-FRET) between lumi4-Tb (donor) and d2 (acceptor) using the EPIgeneous methyltransferase assay (CisBio Cat#62SAHPEB). […] TR-FRET signal is inversely proportional to the concentration of SAH, product of DNMT1 enzyme activity, in the sample.
The human DNMT1 was obtained from Reaction Biology Corp. (Cat# DMT-21-124). […] Final percentage of DMSO was 0.5%. • 2 μl of 1 nM DNMT1 enzyme diluted in assay buffer.
(§4) For each well, fluorescence was measured at 620 nm and 665 nm. A ratio (665 nm/620 nm) was then calculated in order to minimize medium interferences. Positive control was obtained in the presence of the vehicle of the compounds. Negative control was obtained in the absence of G9a enzyme activity. Calculated IC50 values were determined using GraphPrism using 4-parameters inhibition curve.

human G9a enzyme = target: T1, human G9a enzyme (Homo sapiens, UniProt Q96KQ7); assay: G9a enzyme activity assay (TR-FRET); type: biochemical
T1 sequence (Q96KQ7 1-1210): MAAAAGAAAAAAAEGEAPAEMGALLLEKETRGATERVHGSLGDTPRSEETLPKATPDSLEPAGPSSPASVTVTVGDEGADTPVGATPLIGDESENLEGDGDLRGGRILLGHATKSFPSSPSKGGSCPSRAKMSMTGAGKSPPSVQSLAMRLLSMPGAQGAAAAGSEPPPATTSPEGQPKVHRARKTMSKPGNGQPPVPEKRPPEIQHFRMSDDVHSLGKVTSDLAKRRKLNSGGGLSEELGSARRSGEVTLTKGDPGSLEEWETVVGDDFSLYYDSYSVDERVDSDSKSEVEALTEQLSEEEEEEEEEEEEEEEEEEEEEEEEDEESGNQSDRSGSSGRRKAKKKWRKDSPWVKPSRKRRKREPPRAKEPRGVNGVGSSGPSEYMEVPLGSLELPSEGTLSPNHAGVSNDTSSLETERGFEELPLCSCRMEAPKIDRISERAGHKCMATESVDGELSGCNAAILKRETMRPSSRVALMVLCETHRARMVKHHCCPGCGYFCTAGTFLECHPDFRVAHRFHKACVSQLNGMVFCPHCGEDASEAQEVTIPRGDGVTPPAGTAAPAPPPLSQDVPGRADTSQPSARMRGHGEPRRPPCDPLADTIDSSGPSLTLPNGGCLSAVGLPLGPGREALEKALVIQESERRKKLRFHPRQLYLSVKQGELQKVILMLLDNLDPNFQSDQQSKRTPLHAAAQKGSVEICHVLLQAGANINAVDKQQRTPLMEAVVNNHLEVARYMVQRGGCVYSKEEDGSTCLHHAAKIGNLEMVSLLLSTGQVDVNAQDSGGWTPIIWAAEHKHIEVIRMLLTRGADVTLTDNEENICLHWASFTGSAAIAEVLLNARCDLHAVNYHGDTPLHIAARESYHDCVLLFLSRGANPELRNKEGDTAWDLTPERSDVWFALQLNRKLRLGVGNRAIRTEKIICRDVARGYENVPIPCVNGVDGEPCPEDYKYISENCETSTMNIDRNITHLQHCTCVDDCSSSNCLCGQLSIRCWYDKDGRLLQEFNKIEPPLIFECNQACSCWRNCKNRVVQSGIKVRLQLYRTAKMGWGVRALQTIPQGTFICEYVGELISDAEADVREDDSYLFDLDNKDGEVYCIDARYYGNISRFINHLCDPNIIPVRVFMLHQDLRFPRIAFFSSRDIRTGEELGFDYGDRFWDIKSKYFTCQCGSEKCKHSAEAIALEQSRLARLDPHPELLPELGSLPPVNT
Protocol: The biochemical assay to measure G9a enzyme activity relies on time-resolved fluorescence energy transfer (TR-FRET) between europium cryptate (donor) and XL665 (acceptor). […] The human G9a enzyme expressed in a baculovirus infected Sf9 cell expression system was obtained from BPS Biosciences (Cat. #51001). […] Final percentage of DMSO was 0.5%. • 2 μl of 1 nM G9a enzyme diluted in assay buffer. […] Final concentration 150 nM. • Then, add 5 μl of streptavidin XL665 beads. Final concentration of 16 μM. • Read the plate after 1 hour of incubation at room temperature.
as §4

Chain of DNMT1 (P26358 whole entry): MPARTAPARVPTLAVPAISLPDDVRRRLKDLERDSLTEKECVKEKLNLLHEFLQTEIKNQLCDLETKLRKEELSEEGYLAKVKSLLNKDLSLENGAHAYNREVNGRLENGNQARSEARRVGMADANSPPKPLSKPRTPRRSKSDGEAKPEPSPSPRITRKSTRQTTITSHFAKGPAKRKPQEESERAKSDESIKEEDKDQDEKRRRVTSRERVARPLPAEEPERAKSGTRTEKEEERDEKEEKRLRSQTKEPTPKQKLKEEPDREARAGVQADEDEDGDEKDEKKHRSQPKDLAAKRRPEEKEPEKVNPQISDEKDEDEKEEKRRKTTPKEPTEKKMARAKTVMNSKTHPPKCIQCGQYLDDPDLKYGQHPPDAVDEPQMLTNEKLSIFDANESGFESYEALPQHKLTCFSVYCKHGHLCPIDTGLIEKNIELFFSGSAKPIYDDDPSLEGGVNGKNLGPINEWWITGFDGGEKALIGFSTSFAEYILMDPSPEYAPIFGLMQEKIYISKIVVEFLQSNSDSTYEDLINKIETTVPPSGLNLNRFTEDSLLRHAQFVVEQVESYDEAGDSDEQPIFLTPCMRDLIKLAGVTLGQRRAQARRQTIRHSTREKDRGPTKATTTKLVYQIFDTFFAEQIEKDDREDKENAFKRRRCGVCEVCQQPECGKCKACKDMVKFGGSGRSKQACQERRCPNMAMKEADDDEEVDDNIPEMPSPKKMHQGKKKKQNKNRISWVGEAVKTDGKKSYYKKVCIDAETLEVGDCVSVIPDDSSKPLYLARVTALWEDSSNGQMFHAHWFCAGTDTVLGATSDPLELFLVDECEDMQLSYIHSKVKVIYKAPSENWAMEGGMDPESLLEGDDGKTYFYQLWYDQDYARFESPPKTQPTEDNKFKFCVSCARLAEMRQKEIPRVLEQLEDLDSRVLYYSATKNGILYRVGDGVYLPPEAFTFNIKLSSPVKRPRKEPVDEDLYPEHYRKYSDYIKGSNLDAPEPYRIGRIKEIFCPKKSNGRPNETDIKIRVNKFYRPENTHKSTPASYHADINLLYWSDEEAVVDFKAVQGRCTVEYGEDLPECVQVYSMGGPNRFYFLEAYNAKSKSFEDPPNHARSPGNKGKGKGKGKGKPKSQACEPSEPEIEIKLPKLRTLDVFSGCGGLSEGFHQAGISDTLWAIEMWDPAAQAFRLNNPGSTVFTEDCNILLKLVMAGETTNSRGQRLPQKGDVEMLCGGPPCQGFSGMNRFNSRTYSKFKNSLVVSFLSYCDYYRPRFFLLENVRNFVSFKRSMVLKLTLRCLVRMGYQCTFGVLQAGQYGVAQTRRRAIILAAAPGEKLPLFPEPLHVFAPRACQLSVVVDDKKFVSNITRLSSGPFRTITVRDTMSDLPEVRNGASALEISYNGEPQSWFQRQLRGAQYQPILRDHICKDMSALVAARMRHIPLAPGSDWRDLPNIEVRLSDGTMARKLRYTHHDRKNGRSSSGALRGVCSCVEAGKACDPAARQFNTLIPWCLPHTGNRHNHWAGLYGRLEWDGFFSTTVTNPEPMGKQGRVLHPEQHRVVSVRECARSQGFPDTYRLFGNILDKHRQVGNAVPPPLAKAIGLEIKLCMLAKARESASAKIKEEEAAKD

SMILES	GI50 (CEMO-1)	GI50 (PLC/PRF/5)	GI50 (OCI-Ly3)	GI50 (OCI-Ly10)	GI50 (HepG2)	GI50 (Hep3B)	GI50 (LAL-CUN-2)	IC50 (DNMT1)	IC50 (human G9a enzyme)
COc1cc2c(NC3CCN(C)CC3)cc(-c3ccc(C)o3)nc2cc1OC1CCN(C)CC1 [Compound 12-02]	100 to 1000 nM	1000 to 10000 nM	100 to 1000 nM	100 to 1000 nM	1000 to 10000 nM	1000 to 10000 nM			
CCc1ccc(-c2cc(NCC3CCN(C)CC3)c3cc(OC)c(OCCCN4CCCC4)cc3n2)o1 [Compound 3-42]		100 to 1000 nM	100 to 1000 nM		< 100 nM	100 to 1000 nM	100 to 1000 nM		
COc1cc2c(NC3CC4(CCN(C)C4)C3)cc(-c3ccc(C)o3)nc2cc1OCCCN1CCCC1 (stereo not shown) [Compound 5-03]			100 to 1000 nM				1000 to 10000 nM		
CCc1ccc(-c2cc(NC3CCN(C4CC4)CC3)c3cc(OC)c(OCCCN4CCCC4)cc3n2)o1 [Compound 3-48]	100 to 1000 nM	≤ 10000 nM	1000 to 10000 nM	100 to 1000 nM	1000 to 10000 nM	1000 to 10000 nM		100 to 500 nM	< 100 nM
COc1cc2c(NC3CCNCC3)cc(-c3ccc(C)o3)nc2cc1OCCCN1CCCC1 [Compound 3-08]	1000 to 10000 nM		1000 to 10000 nM	≤ 10000 nM			1000 to 10000 nM	100 to 500 nM	< 100 nM
COc1cc2c(NC3CCC34CCN(C)C4)cc(-c3ccc(C)o3)nc2cc1OCCCN1CCCC1 (stereo not shown) [Compound 5-04]			100 to 1000 nM				1000 to 10000 nM		
COc1cc2c(NC3CCCC3)cc(C)nc2cc1OCCCN1CCCC1 [Compound 3-24]				1000 to 10000 nM				1000 to 10000 nM	< 100 nM
COc1cc2c(NC3CCN(C)CC3)cc(-c3ccccc3)nc2cc1OCCCN1CCCC1 [Compound 3-29]	100 to 1000 nM	1000 to 10000 nM	100 to 1000 nM	100 to 1000 nM	1000 to 10000 nM	1000 to 10000 nM		1000 to 10000 nM	< 100 nM
COc1cc2c(NC3CCN(C)CC3)cc(-c3ccoc3)nc2cc1OCCCN1CCCC1 [Compound 3-27]	1000 to 10000 nM		≤ 10000 nM	100 to 1000 nM			≤ 10000 nM	1000 to 10000 nM	< 100 nM
CCc1ccc(-c2cc(NC3CC4CCC(C3)N4C)c3cc(OC)c(OCCCN4CCCC4)cc3n2)o1 (stereo not shown) [Compound 3-50]	100 to 1000 nM	100 to 1000 nM	100 to 1000 nM	1000 to 10000 nM	1000 to 10000 nM	1000 to 10000 nM		100 to 500 nM	< 100 nM
CNC(=O)CCNc1cc(-c2ccc(C)o2)nc2cc(OCCCN3CCCC3)c(OC)cc12 [Compound 3-19]	1000 to 10000 nM	1000 to 10000 nM	100 to 1000 nM	100 to 1000 nM	≤ 10000 nM	1000 to 10000 nM			
COc1cc2c(NC3CCN(C)CC3)cc(-c3ccc(C)o3)nc2cc1OC1CC2(C1)CN(C)C2 [Compound 17-01, 6-methoxy-7-[(2-methyl-2-azaspiro[3.3]heptan-6-yl)oxy]-2-(5-methyl-2-furyl)-N-(1-methyl-4-piperidyl)quinolin-4-amine; 2,2,2-trifluoroacetic acid]		100 to 1000 nM	< 100 nM		100 to 1000 nM	100 to 1000 nM			
CCc1ccc(-c2cc(NC3C4CCC3CN(C)C4)c3cc(OC)c(OCCCN4CCCC4)cc3n2)o1 (stereo not shown) [Compound 3-51]	100 to 1000 nM	100 to 1000 nM	1000 to 10000 nM	100 to 1000 nM	100 to 1000 nM	100 to 1000 nM		100 to 500 nM	< 100 nM
CCc1ccc(-c2cc(NC3CC4(CCN(C)CC4)C3)c3cc(OC)c(OCCCN4CCCC4)cc3n2)o1 [Compound 5-06, 2-(5-ethyl-2-furyl)-6-methoxy-N-(7-methyl-7-azaspiro[3.5]nonan-2-yl)-7-(3-pyrrolidin-1-ylpropoxy)quinolin-4-amine; 2,2,2-trifluoroacetic acid]	100 to 1000 nM	100 to 1000 nM	100 to 1000 nM	100 to 1000 nM	100 to 1000 nM	100 to 1000 nM		100 to 500 nM	< 100 nM
COc1cc2c(NC3CCN(C)CC3)cc(C3=CCCCC3)nc2cc1OCCCN1CCCC1 [Compound 6-01, 2-(cyclohexen-1-yl)-6-methoxy-N-(1-methyl-4-piperidyl)-7-(3-pyrrolidin-1-ylpropoxy)quinolin-4-amine; 2,2,2-trifluoroacetic acid]	1000 to 10000 nM						1000 to 10000 nM	100 to 500 nM	< 100 nM
COc1cc2c(NC3CCN(C)CC3)cc(-c3ccc(C)[nH]3)nc2cc1OCCCN1CCCC1 [Compound 3-31]	1000 to 10000 nM		100 to 1000 nM	100 to 1000 nM			≤ 10000 nM	100 to 500 nM	< 100 nM
CCc1ccc(-c2cc(NCC3CCN(C4CC4)CC3)c3cc(OC)c(OCCCN4CCCC4)cc3n2)o1 [Compound 3-49]	100 to 1000 nM	100 to 1000 nM	< 100 nM	100 to 1000 nM	100 to 1000 nM	100 to 1000 nM		100 to 500 nM	100 to 500 nM
COc1cc2c(NC3CCN(C)CC3)cc(-c3ccco3)nc2cc1OCCCN1CCCC1 [Compound 3-40]	< 100 nM		< 100 nM	< 100 nM			100 to 1000 nM	100 to 500 nM	< 100 nM
COc1cc2c(NC3CCN(C)CC3)cc(-c3ccc4occc4c3)nc2cc1OCCCN1CCCC1 [Compound 3-28]	1000 to 10000 nM			< 100 nM				500 to 1000 nM	< 100 nM
CCc1ccc(-c2cc(NC3CCN(C)CC3)c3cc(OC)c(OCCCN4CCCC4)cc3n2)o1 [Compound 3-41]		100 to 1000 nM			100 to 1000 nM	100 to 1000 nM	100 to 1000 nM		
